# Experimental data taken from patent US7268152B2, “Glucocorticoid mimetics, methods of making them, pharmaceutical compositions, and uses thereof” (Boehringer Ingelheim Pharmaceuticals, Inc., priority 2002, dated 2007).
# Target: T1, human glucocorticoid receptor (GR) complex (Homo sapiens, UniProt P04150)
# T1 construct: made in house; host or cells: insect expression system (baculovirus lysate)
# T1 sequence (P04150 1-777): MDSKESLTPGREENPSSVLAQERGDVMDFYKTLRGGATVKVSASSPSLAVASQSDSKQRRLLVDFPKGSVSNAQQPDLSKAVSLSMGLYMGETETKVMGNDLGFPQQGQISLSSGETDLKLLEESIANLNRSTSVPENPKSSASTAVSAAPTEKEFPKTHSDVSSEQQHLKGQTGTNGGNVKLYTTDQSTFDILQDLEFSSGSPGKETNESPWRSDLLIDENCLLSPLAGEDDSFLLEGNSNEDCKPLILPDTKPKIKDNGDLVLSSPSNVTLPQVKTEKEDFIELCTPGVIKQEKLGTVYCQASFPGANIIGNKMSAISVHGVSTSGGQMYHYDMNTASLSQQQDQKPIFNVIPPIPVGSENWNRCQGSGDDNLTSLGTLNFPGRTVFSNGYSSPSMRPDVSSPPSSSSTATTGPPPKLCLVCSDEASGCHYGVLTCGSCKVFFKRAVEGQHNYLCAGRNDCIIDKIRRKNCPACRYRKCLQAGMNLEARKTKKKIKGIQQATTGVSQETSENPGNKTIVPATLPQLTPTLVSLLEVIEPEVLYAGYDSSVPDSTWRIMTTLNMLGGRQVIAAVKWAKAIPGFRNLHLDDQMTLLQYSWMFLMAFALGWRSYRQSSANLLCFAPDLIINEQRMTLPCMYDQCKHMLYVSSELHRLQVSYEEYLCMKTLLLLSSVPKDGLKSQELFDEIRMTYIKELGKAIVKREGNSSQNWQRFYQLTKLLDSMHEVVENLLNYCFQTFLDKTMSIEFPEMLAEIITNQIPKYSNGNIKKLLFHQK
# Assay: Glucocorticoid receptor competitive binding assay (fluorescence polarization)
# Conditions: competition with TAMRA-labeled dexamethasone
# Protocol: Compounds of the invention were evaluated for binding to the steroid receptor by a fluorescence polarization competitive binding assay. Detailed descriptions for preparation of recombinant glucocorticoid receptor (GR) complex used in the assay is described in U.S. provisional application No. 60/291,877, filed May 18, 2001, and incorporated herein by reference in its entirety. Preparation of the tetramethyl rhodamine (TAMRA)-labeled dexamethasone probe was accomplished using a standard literature procedure (M. Pons et al., J. Steroid Biochem., 1985, 22, pp. 267-273).
# A. Glucocorticoid Receptor Competitive Binding Assay
# Step 1. Characterization of the Fluorescent Probe
# The wavelengths for maximum excitation and emission of the fluorescent probe should first be measured. An example of such a probe is rhodamine (TAMRA)-labeled dexamethasone.
# The affinity of the probe for the steroid receptor was then determined in a titration experiment. The fluorescence polarization value of the probe in assay buffer was measured on an SLM-8100 fluorometer using the excitation and emission maximum values described above. Aliquots of expression vector lysate were added and fluorescence polarization was measured after each addition until no further change in polarization value was observed. Non-linear least squares regression analysis was used to calculate the dissociation constant of the probe from the polarization values obtained for lysate binding to the probe.
# Step 2. Screeningfor Inhibitors of Probe Binding
# This assay uses fluorescence polarization (FP) to quantitate the ability of test compounds to compete with tetramethyl rhodamine (TAMRA)-labeled dexamethasone for binding to a human glucocorticoid receptor (GR) complex prepared from an insect expression system. The assay buffer was: 10 mM TES, 50 mM KCl, 20 mM Na2MoO4.2H2O, 1.5 mM EDTA, 0.04% w/v CHAPS, 10% v/v glycerol, 1 mM dithiothreitol, pH 7.4. Test compounds were dissolved to 1 mM in neat DMSO and then further diluted to 10×assay concentration in assay buffer supplemented with 10% v/v DMSO. Test compounds were serially diluted at 10×assay concentrations in 10% DMSO-containing buffer in 96-well polypropylene plates. Binding reaction mixtures were prepared in 96-well black Dynex microtiter plates by sequential addition of the following assay components to each well: […] of 10×test compound solution, 85 μL of GR-containing baculovirus lysate diluted 1:170 in assay buffer, and 50 μL of 15 nM TAMRA-labeled dexamethasone. Positive controls were reaction mixtures containing no test compound; negative controls (blanks) were reaction mixtures containing 0.7 μM to 2 μM dexamethasone. The binding reactions were incubated for 1 hour at room temperature and then read for fluorescence polarization in the LJL Analyst set to 550 nm excitation and 580 nm emission, with the Rhodamine 561 dichroic mirror installed. IC50 values were determined by iterative non-linear curve fitting of the FP signal data to a 4-parameter logistic equation.
row,SMILES,IC50
1,COc1ccc(F)cc1C(C)(C)CC(O)(Cc1cc(Cl)cc(Cl)c1Cl)C(F)(F)F (stereo not shown),≤ 100 nM
2,CC(C)(CC(O)(Cc1cc(C(F)(F)F)cc(Cl)c1F)C(F)(F)F)c1cc([N+](=O)[O-])cc2c1OCC2 (stereo not shown),≤ 100 nM
3,"COc1ccc(F)cc1C(C)(C)CC(O)(Cc1cccc(C(F)(F)F)c1F)C(F)(F)F (stereo not shown) [1,1,1-Trifluoro-4-(5-fluoro-2-methoxyphenyl)-2-(2-fluoro-3-trifluoromethylbenzyl)-4-methylpentan-2-ol]",≤ 100 nM
4,"COc1ccc(F)cc1C(C)(C)CC(O)(Cc1cc(C(F)(F)F)ccc1F)C(F)(F)F (stereo not shown) [1,1,1-Trifluoro-4-(5-fluoro-2-methoxyphenyl)-2-(2-fluoro-5-trifluoromethylbenzyl)-4-methylpentan-2-ol]",≤ 100 nM
5,"COc1ccc(F)cc1C(C)(C)CC(O)(Cc1cc(F)cc(C(F)(F)F)c1)C(F)(F)F (stereo not shown) [1,1,1-Trifluoro-4-(5-fluoro-2-methoxyphenyl)-2-(3-fluoro-5-trifluoromethylbenzyl)-4-methylpentan-2-ol]",≤ 100 nM
6,"COc1ccc(F)cc1C(C)(C)CC(O)(Cc1cc(F)cc(F)c1F)C(F)(F)F (stereo not shown) [1,1,1-Trifluoro-4-(5-fluoro-2-methoxyphenyl)-4-methyl-2-(2,3,5-trifluorobenzyl)pentan-2-ol]",≤ 100 nM
7,"COc1ccc(F)cc1C(C)(C)CC(O)(Cc1c(C)ccc2ccccc12)C(F)(F)F (stereo not shown) [1,1,1-Trifluoro-4-(5-fluoro-2-methoxyphenyl)-4-methyl-2-(2-methylnaphthalen-1-ylmethyl)pentan-2-ol]",≤ 100 nM
8,"COc1ccc(F)cc1C(C)(C)CC(O)(C(O)c1cc(C)cc(C)c1)C(F)(F)F (stereo not shown) [1-(3,5-Dimethylphenyl)-4-(5-fluoro-2-methoxyphenyl)-4-methyl-2-trifluoromethylpentane-1,2-diol]",≤ 100 nM
9,"COc1ccc(F)cc1C(C)(C)CC(O)(C(=O)Cc1cc(C)cc(C)c1)C(F)(F)F (stereo not shown) [1-(3,5-Dimethylphenyl)-5-(5-fluoro-2-methoxyphenyl)-3-hydroxy-5-methyl-3-trifluoromethylhexan-2-one]",≤ 100 nM
10,"COc1ccc(F)cc1C(C)(C)CC(O)(Cc1cccc(Cl)c1Cl)C(F)(F)F (stereo not shown) [2-(2,3-Dichlorobenzyl)-1,1,1-trifluoro-4-(5-fluoro-2-methoxyphenyl)-4-methylpentan-2-ol]",≤ 100 nM
11,"COc1ccc(F)cc1C(C)(C)CC(O)(Cc1ccccc1Br)C(F)(F)F (stereo not shown) [2-(2-Bromobenzyl)-1,1,1-trifluoro-4-(5-fluoro-2-methoxyphenyl)-4-methylpentan-2-ol]",≤ 100 nM
12,"COc1ccc(F)cc1C(C)(C)CC(O)(Cc1ccccc1Cl)C(F)(F)F (stereo not shown) [2-(2-Chlorobenzyl)-1,1,1-trifluoro-4-(5-fluoro-2-methoxyphenyl)-4-methylpentan-2-ol]",≤ 100 nM
13,"CC(C)(CC(O)(Cc1ccc(Cl)c(Cl)c1)C(F)(F)F)c1ccccc1 (stereo not shown) [2-(3,4-Dichlorobenzyl)-1,1,1-trifluoro-4-methyl-4-phenylpentan-2-ol]",≤ 100 nM
14,"COc1ccc(F)cc1C(C)(C)CC(O)(Cc1cc(C(F)(F)F)cc(C(F)(F)F)c1)C(F)(F)F (stereo not shown) [2-(3,5-Bis-trifluoromethylbenzyl)-1,1,1-trifluoro-4-(5-fluoro-2-methoxyphenyl)-4-methylpentan-2-ol]",≤ 100 nM
15,"CC(C)(CC(O)(Cc1cc(Cl)cc(Cl)c1)C(F)(F)F)c1ccccc1 (stereo not shown) [2-(3,5-Dichlorobenzyl)-1,1,1-trifluoro-4-methyl-4-phenylpentan-2-ol]",≤ 100 nM
16,"COc1ccccc1C(C)(C)CC(O)(Cc1cc(C)cc(C)c1)C(F)(F)F (stereo not shown) [2-(3,5-Dimethylbenzyl)-1,1,1-tri fluoro-4-(2-methoxyphenyl)-4-methylpentan-2-ol]",≤ 100 nM
17,"CC(C)(CC(O)(Cc1ccc(-c2ccccc2)cc1)C(F)(F)F)c1cc(F)ccc1O (stereo not shown) [2-(3-Biphenyl-4-ylmethyl-4,4,4-trifluoro-3-hydroxy-1,1-dimethylbutyl)-4-fluorophenol]",≤ 100 nM
18,"CC(C)(CC(O)(Cc1cc(C(F)(F)F)cc(Cl)c1F)C(F)(F)F)c1ccc(F)cc1 (stereo not shown) [2-(3-Chloro-2-fluoro-5-trifluoromethylbenzyl)-1,1,1-trifluoro-4-(4-fluorophenyl)-4-methylpentan-2-ol]",≤ 100 nM
19,"Cc1ccc(F)cc1C(C)(C)CC(O)(Cc1cc(C(F)(F)F)cc(Cl)c1F)C(F)(F)F (stereo not shown) [2-(3-Chloro-2-fluoro-5-trifluoromethylbenzyl)-1,1,1-trifluoro-4-(5-fluoro-2-methylphenyl)-4-methylpentan-2-ol]",≤ 100 nM
20,"CC(C)(CC(O)(Cc1cc(C(F)(F)F)cc(Cl)c1F)C(F)(F)F)c1ccccc1 (stereo not shown) [2-(3-Chloro-2-fluoro-5-trifluoromethylbenzyl)-1,1,1-trifluoro-4-methyl-4-phenylpentan-2-ol]",≤ 100 nM
21,"CC(C)(CC(O)(Cc1cc(C(F)(F)F)cc(Cl)c1F)C(F)(F)F)c1cccc2c1OCC2 (stereo not shown) [2-(3-Chloro-2-fluoro-5-trifluoromethylbenzyl)-4-(2,3-dihydrobenzofuran-7-yl)-1,1,1-trifluoro-4-methylpentan-2-ol]",≤ 100 nM

# More lines, now with the values ahead:
row,IC50,SMILES
1,≤ 100 nM,COc1ccc(F)cc1C(C)(C)CC(O)(Cc1ccc(C(F)(F)F)c(F)c1)C(F)(F)F (stereo not shown)
2,≤ 100 nM,COc1ccc(F)cc1C(C)(C)CC(O)(Cc1ccc(C=O)cc1)C(F)(F)F (stereo not shown)
3,≤ 100 nM,"COc1ccc(F)cc1C(C)(C)CC(O)(Cc1ccc(C)c2ccccc12)C(F)(F)F (stereo not shown) [1,1,1-Trifluoro-4-(5-fluoro-2-methoxyphenyl)-4-methyl-2-(4-methylnaphthalen-1-ylmethyl)pentan-2-ol]"
4,≤ 100 nM,"COc1ccc(F)cc1C(C)(C)CC(O)(Cc1ccc(Cl)cc1Cl)C(F)(F)F (stereo not shown) [2-(2,4-Dichlorobenzyl)-1,1,1-trifluoro-4-(5-fluoro-2-methoxyphenyl)-4-methylpentan-2-ol]"
5,≤ 100 nM,"COc1ccc(F)cc1C(C)(C)CC(O)(Cc1cc(Cl)ccc1Cl)C(F)(F)F (stereo not shown) [2-(2,5-Dichlorobenzyl)-1,1,1-trifluoro-4-(5-fluoro-2-methoxyphenyl)-4-methylpentan-2-ol]"
6,≤ 100 nM,"Cc1ccc(F)cc1C(C)(C)CC(O)(Cc1ccc(Cl)c(Cl)c1)C(F)(F)F (stereo not shown) [2-(3,4-Dichlorobenzyl)-1,1,1-trifluoro-4-(5-fluoro-2-methylphenyl)-4-methylpentan-2-ol]"
7,≤ 100 nM,"COc1ccc(F)cc1C(C)(C)CC(O)(Cc1ccc(C)c(C)c1)C(F)(F)F (stereo not shown) [2-(3,4-Dimethylbenzyl)-1,1,1-trifluoro-4-(5-fluoro-2-methoxyphenyl)-4-methylpentan-2-ol]"
8,≤ 100 nM,"COc1ccc(F)cc1C(C)(C)CC(O)(Cc1cc(Cl)cc(Cl)c1)C(F)(F)F (stereo not shown) [2-(3,5-Dichlorobenzyl)-1,1,1-trifluoro-4-(5-fluoro-2-methoxyphenyl)-4-methylpentan-2-ol]"
9,≤ 100 nM,"COc1ccc(F)cc1C(C)(C)CC(O)(Cc1cc(F)cc(F)c1)C(F)(F)F (stereo not shown) [2-(3,5-Difluorobenzyl)-1,1,1-trifluoro-4-(5-fluoro-2-methoxyphenyl)-4-methylpentan-2-ol]"
10,≤ 100 nM,"COc1ccc(F)cc1C(C)(C)CC(O)(Cc1cccc(Br)c1)C(F)(F)F (stereo not shown) [2-(3-Bromobenzyl)-1,1,1-trifluoro-4-(5-fluoro-2-methoxyphenyl)-4-methylpentan-2-ol]"
